Results published in ChEMBL document CHEMBL4270495, “Oleanane-, ursane-, and quinone methide friedelane-type triterpenoid derivatives: Recent advances in cancer treatment” (Eur J Med Chem, 2017).

Key:
HepG2 [1] = test: Cytotoxicity in human HepG2 cells assessed as reduction in cell viability incubated for 72 hrs by MTT assay; format: functional, cell-based; details: HepG2, 72 h
EA.hy 926 = test: Cytotoxicity in human EAhy926 cells assessed as reduction in cell viability incubated for 72 hrs by MTT assay; format: cell-based; details: EA.hy 926, 72 h
HeLa [2] = test: Cytotoxicity in human HeLa cells assessed as reduction in cell viability incubated for 72 hrs by MTT assay; format: functional, cell-based
H9c2 = test: Cytotoxicity in rat H9c2 cells assessed as reduction in cell viability incubated for 72 hrs by MTT assay; format: cell-based; details: H9c2, 72 h
HT-29 = test: Cytotoxicity in human HT-29 cells assessed as reduction in cell viability incubated for 72 hrs by MTT assay; format: functional, cell-based; details: HT-29, 72 h
MDCK = test: Cytotoxicity in canine MDCK cells assessed as reduction in cell viability incubated for 72 hrs by MTT assay; format: cell-based; details: Canis lupus familiaris
[3] = Cytotoxicity in human HELF cells assessed as reduction in cell viability incubated for 24 hrs by MTT assay; format: cell-based
HepG2 [4] = test: Cytotoxicity in human HepG2 cells assessed as reduction in cell viability incubated for 24 hrs by MTT assay; format: functional, cell-based; details: HepG2, 24 h
AGS = test: Cytotoxicity in human AGS cells assessed as reduction in cell viability incubated for 24 hrs by MTT assay; format: functional, cell-based
HeLa [5] = test: Cytotoxicity in human HeLa cells assessed as reduction in cell viability incubated for 24 hrs by MTT assay; format: functional, cell-based
Bel-7402 = test: Cytotoxicity in human Bel7402 cells assessed as reduction in cell viability incubated for 72 hrs by MTT assay; format: functional, cell-based; details: Bel-7402, 72 h
H4 = test: Cytotoxicity in human H4 cells assessed as reduction in cell viability incubated for 72 hrs by MTT assay; format: functional, cell-based; details: H4, 72 h

SMILES | IC50 (HepG2 [1]) | IC50 (EA.hy 926) | IC50 (HeLa [2]) | IC50 (H9c2) | IC50 (HT-29) | IC50 (MDCK) | IC50 [3] | IC50 (HepG2 [4]) | IC50 (AGS) | IC50 (HeLa [5]) | IC50 (Bel-7402) | IC50 (H4)
COc1cc(/C=C/C(=O)O[C@H]2CC[C@]3(C)[C@H]4C(=O)C=C5[C@H]6C[C@@](C)(C(=O)O)CC[C@]6(C)CC[C@@]5(C)[C@]4(C)CC[C@H]3C2(C)C)cc(OC)c1OC | 21.9 µM | 30.8 µM | 30.7 µM | 47.4 µM | 25.5 µM | 27.7 µM |  |  |  |  |  | 
Cc1ccc(/C=C/C(=O)O[C@H]2CC[C@]3(C)[C@H]4C(=O)C=C5[C@H]6C[C@@](C)(C(=O)O)CC[C@]6(C)CC[C@@]5(C)[C@]4(C)CC[C@H]3C2(C)C)cc1 | 22.1 µM | 27.6 µM | 14.2 µM | > 50 µM | 21.7 µM | 38 µM |  |  |  |  |  | 
COc1cccc(/C=C/C(=O)O[C@H]2CC[C@]3(C)[C@H]4C(=O)C=C5[C@H]6C[C@@](C)(C(=O)O)CC[C@]6(C)CC[C@@]5(C)[C@]4(C)CC[C@H]3C2(C)C)c1 | 12.7 µM | 31 µM | 17.5 µM | > 50 µM | 14.9 µM | 22.2 µM |  |  |  |  |  | 
CC(=O)O[C@H]1CC[C@]2(C)[C@H]3CC=C4[C@@H]5[C@@H](C)[C@H](C)CC[C@]5(C(=O)NCCCCN)CC[C@@]4(C)[C@]3(C)CC[C@H]2C1(C)C |  |  |  |  |  |  | 25.1 µM | 16 µM | 14.1 µM | 4.2 µM |  | 
C[C@H]1[C@H](C)CC[C@]2(C(=O)NCCN)CC[C@]3(C)C(=CC[C@@H]4[C@@]5(C)CC[C@H](O)C(C)(C)[C@@H]5CC[C@]43C)[C@H]12 |  |  |  |  |  |  | 15.4 µM | 13.9 µM | 17.7 µM | 14.6 µM |  | 
COC(=O)[C@]1(C)CC[C@]2(C)CC[C@]3(C)C4=CC(c5c[nH]c6cc(C)ccc56)c5c(cc(OC)c(OC)c5C)C4(C)CC[C@@]3(C)[C@H]2C1 (single isomer, unassigned) |  |  |  |  |  |  |  |  |  |  | 0.02 µM | 7.88 µM
CC(=O)O[C@H]1CC[C@]2(C)[C@H]3CC=C4[C@@H]5[C@@H](C)[C@H](C)CC[C@]5(C(=O)NCCCCCCN)CC[C@@]4(C)[C@]3(C)CC[C@H]2C1(C)C |  |  |  |  |  |  | 14.9 µM | 7.2 µM | 12.8 µM | 3.8 µM |  | 
CC(=O)Oc1cc2c(c(C)c1OC(C)=O)C(Sc1ccc(C)cc1)C=C1C2(C)CC[C@@]2(C)[C@@H]3C[C@](C)(C(=O)O)CC[C@]3(C)CC[C@]12C (single isomer, unassigned) |  |  |  |  |  |  |  |  |  |  | 0.45 µM | 0.37 µM
COc1cccc(/C=C/C(=O)O[C@H]2CC[C@]3(C)[C@H]4C(=O)C=C5[C@H]6C[C@@](C)(C(=O)O)CC[C@]6(C)CC[C@@]5(C)[C@]4(C)CC[C@H]3C2(C)C)c1OC | 24.4 µM | 25 µM | 22.5 µM | > 50 µM | 24.4 µM | 33.7 µM |  |  |  |  |  | 
COc1ccc2[nH]cc(C3C=C4C(C)(CC[C@@]5(C)[C@H]6C[C@](C)(C(=O)O)CC[C@]6(C)CC[C@]45C)c4cc(O)c(O)c(C)c43)c2c1 (single isomer, unassigned) |  |  |  |  |  |  |  |  |  |  | 45.4 µM | 24.4 µM
CC(=O)O[C@H]1CC[C@]2(C)[C@H]3CC=C4[C@@H]5[C@@H](C)[C@H](C)CC[C@]5(C(=O)NCCN)CC[C@@]4(C)[C@]3(C)CC[C@H]2C1(C)C |  |  |  |  |  |  | 18.1 µM | 16.3 µM | 14.5 µM | 4.4 µM |  | 
COc1ccccc1/C=C/C(=O)O[C@H]1CC[C@]2(C)[C@H]3C(=O)C=C4[C@H]5C[C@@](C)(C(=O)O)CC[C@]5(C)CC[C@@]4(C)[C@]3(C)CC[C@H]2C1(C)C | 32 µM | > 50 µM | 24.6 µM | > 50 µM | 22.2 µM | 22.9 µM |  |  |  |  |  | 
C[C@H]1[C@H](C)CC[C@]2(C(=O)NCCCCN)CC[C@]3(C)C(=CC[C@@H]4[C@@]5(C)CC[C@H](O)C(C)(C)[C@@H]5CC[C@]43C)[C@H]12 |  |  |  |  |  |  | 15 µM | 14.4 µM | 17.5 µM | 14.5 µM |  | 
